Experiment [1] has as its target T1, rHDAC1 (Homo sapiens, UniProt Q13547).
T1 construct: purchased BPS Bioscience (US)
The experiment can be described thus: rHDAC1 inhibition as a function of initial incubation time. To be noted: thioester at IC50 concentration, incubation 1–60 minutes. Format: biochemical. On the procedure:
An alternative hypothesis for the high potency of the thioester inhibitors is that the HDAC enzyme cleaves the acetyl group directly, utilizing its intrinsic deacetylase activity. Inhibition of rHDAC1 was measured (at the IC50 concentration of thioester) as a function of the initial incubation time (1–60 minutes) of rHDAC1 with thioesters 7 and 9 (Figure 2). […] Finally, we assessed whether the use of thioester inhibitors could influence the assay readout, when using our coupled HDAC assay. Trypsin-dependant generation of the fluorescence intensity (2nd step of our coupled assay) was discounted as a source of false-positive activity, since trypsin was used in a large excess (430 μM) compared to the thioesters (low micromolar to nanomolar). Direct compound inhibition of trypsin would therefore not be significant in the overall readout on stoichiometry grounds.
Figure 2 rHDAC1 was incubated with a predetermined IC50 concentration of 7 (left) and 9 (right) for 1–60 minutes, and the remaining rHDAC1 activity (Y-axis, %) was recorded and plotted as a function of the incubation time (X-axis, minutes).
A serial dilution of test compounds was pre-incubated with 7.4 nM rHDAC1 or 2.8 nM rHDAC6, at 21 ± 1 °C in the dark for different periods of time as indicated. […] The fluorescence of AMC served as an indirect measure of HDAC enzyme activity. […]

Experiment [2] has as its system WI38 (normal human lung fibroblast). Put plainly: Cytotoxicity against WI38 cell line. Format: cell-based. The settings on record: for IC50: Homo sapiens, WI-38, WI38 cells. On the procedure: (§1) Thioesters 7–9 were assayed against A549, MCF7 and WI38 cell lines, in addition to recombinant human rHDAC1 (class I) and recombinant human HDAC6 (rHDAC6, class II) as previously reported. Psammaplin A (3), prereduced psammaplin A thiol (4), and SAHA (1) were included as control compounds. IC50^6/1 is defined by the ratio IC50^HDAC6/IC50^HDAC1 and was used as an indicator of isoform selectivity in vitro.

Experiment [3] concerns MCF7 (human breast carcinoma). The experiment can be described thus: Cytotoxicity against MCF7 cell line. Format: cell-based. The settings on record: MCF7 cells. On the procedure: as §1
In experiment [4] the test system is A549 (human lung carcinoma). The experiment can be described thus: Cytotoxicity against A549 cell line. Format: cell-based. To be noted: for IC50: Homo sapiens, A549 cells. On the procedure: as §1
For experiment [5], the target named is T2, recombinant human HDAC6 (rHDAC6) (Homo sapiens, UniProt Q9UBN7).
T2 construct: purchased BPS Bioscience (US)
T2 sequence (Q9UBN7 1-1215): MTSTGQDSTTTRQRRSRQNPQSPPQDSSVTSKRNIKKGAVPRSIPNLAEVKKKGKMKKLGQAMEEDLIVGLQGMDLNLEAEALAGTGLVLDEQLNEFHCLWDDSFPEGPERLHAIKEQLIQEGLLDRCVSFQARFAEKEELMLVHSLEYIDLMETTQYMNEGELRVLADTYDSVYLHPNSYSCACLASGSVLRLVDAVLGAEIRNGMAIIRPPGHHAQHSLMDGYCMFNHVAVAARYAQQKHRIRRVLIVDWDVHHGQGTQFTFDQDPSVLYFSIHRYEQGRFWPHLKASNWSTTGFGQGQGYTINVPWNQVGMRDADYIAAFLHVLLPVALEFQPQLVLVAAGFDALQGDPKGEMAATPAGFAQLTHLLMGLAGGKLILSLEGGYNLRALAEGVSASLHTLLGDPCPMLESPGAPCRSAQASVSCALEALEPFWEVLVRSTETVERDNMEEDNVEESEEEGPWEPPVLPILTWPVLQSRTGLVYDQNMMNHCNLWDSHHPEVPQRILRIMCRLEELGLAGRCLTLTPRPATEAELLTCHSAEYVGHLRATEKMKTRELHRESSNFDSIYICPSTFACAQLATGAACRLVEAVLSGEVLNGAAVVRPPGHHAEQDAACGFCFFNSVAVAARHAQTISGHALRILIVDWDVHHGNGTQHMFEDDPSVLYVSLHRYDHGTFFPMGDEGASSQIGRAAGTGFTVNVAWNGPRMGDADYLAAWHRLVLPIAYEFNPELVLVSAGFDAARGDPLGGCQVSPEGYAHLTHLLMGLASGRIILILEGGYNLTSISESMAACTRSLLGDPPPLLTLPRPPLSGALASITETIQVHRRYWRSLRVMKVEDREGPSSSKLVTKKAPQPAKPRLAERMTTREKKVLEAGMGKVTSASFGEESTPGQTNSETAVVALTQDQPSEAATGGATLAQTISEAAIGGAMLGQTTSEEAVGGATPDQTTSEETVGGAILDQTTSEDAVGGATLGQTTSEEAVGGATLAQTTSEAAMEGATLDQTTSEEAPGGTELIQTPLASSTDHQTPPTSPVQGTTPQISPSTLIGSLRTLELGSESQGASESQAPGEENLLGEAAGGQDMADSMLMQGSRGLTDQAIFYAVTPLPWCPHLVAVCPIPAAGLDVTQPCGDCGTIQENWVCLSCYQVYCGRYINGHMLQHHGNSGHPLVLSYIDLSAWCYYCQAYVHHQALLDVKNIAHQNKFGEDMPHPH
Put plainly: rHDAC6 inhibition, coupled Boc-Lys(Ac)-AMC/trypsin fluorescence assay. The settings on record: purified recombinant human HDAC6. Format: biochemical. The protocol: (§2) HDAC assays were performed as previously reported. The recombinant human histone deacetylases rHDAC1 and rHDAC6 were obtained from BPS Bioscience (US).
(§3) All reactions were performed in black half area 96-well microplates (Greiner bio-one, Germany) according to the general procedure described by Wegener et al. with some minor modifications. […] The buffer components were purchased from Merck (Germany), Roth (Germany) and Sigma-Aldrich.
(§4) The enzyme reaction was initiated by the addition of Boc-Lys(Ac)-AMC substrate. The reaction mixture was incubated at 30 °C in the dark and stopped after 60 min by the addition of a mixture of 70 µM trypsin and 200 nM SAHA. The fluorescence of AMC served as an indirect measure of HDAC enzyme activity. The kinetics of AMC release was measured on a PolarStar fluorescence plate reader (BMG) with an excitation wavelength of 340 nm and an emission wavelength of 460 nm. Complete cleavage of deacetylated Boc-Lys-AMC by trypsin was achieved after about 10–15 min. The fluorescence intensity of the plateau was averaged over at least 5 min and normalized with respect to the percentage of enzyme activity. Finally, the normalized fluorescence intensities were plotted versus the concentration of test compounds and fitted to a four-parameter logistic model to calculate the IC50 values.

Experiment [6] has as its target T1, rHDAC1. Put plainly: rHDAC1 inhibition, coupled Boc-Lys(Ac)-AMC/trypsin fluorescence assay. Format: biochemical. The settings on record: for IC50^6/1 (ratio IC50 HDAC6/IC50 HDAC1): isoform selectivity in vitro; for IC50: purified recombinant human HDAC1. The protocol:
as §2, §3, §4

For experiment [7], the system named is MCF7 (human breast carcinoma). Further details: method as in PMID 22280363. To be noted: in brackets, cited from earlier work.
Experiment [8] relates to A549 (human lung carcinoma). Further details: method as in PMID 22280363. To be noted: in brackets, cited from earlier work.
In experiment [9] the target is T2, recombinant human HDAC6 (rHDAC6). Further details: method as in PMID 22280363. To be noted: in brackets, cited from earlier work.
For experiment [10], the target named is T1, rHDAC1. Also on record: method as in PMID 22280363. To be noted: in brackets, cited from earlier work.
Experiment [11] deals with WI38 (normal human lung fibroblast). Also on record: method as in PMID 22280363. The settings on record: in brackets, cited from earlier work.
The mark [12] stands for this setting: first value: corresponding disulfide.
[13] abbreviates: second value: corresponding thiol.

Where two headings read alike, the source gives them in different places.

T1 sequence (Q13547 whole entry): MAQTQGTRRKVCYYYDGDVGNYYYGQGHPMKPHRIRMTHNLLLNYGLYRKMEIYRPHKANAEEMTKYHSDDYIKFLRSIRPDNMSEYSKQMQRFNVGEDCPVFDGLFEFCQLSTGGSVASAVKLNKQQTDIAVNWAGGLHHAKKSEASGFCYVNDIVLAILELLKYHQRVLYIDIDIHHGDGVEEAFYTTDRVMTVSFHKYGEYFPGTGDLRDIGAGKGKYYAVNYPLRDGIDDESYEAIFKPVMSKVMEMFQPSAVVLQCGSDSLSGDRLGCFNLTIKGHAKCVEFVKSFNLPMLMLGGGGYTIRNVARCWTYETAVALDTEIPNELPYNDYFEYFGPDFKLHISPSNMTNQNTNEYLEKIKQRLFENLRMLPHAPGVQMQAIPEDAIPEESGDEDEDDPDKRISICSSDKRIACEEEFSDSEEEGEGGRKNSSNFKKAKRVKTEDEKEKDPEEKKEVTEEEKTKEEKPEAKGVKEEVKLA

On to `CO/N=C(\Cc1ccc(OC)c(Br)c1)C(=O)NCCSC(C)=O` [Compound 7, (E)-(S)-2-(3-(3-Bromo-4-methoxyphenyl)-2-(methoxyimino)propanamido)ethyl ethanethioate], for which the “variation of rHDAC1 inhibition with initial incubation time” value on rHDAC1 [1] is reported as “No variation of enzymatic inhibition”. The IC50 is 17 µM in experiment [2]; 12 µM in experiment [3]; 44 µM in [4]; above 50 µM in experiment [5]; 0.12 µM at rHDAC1 [6]. The “IC50^6/1 (ratio IC50 HDAC6/IC50 HDAC1)” value on rHDAC1 [6] is recorded as above 417. Also, on rHDAC1 [6] (thioester vs free thiol), the “times less potent than the corresponding free thiol analogue against rHDAC1” value is given as 8 times.
Consider `COc1ccc(CC(=O)C(=O)NCCSC(C)=O)cc1Br` [Compound 9, (S)-2-(3-(3-Bromo-4-methoxyphenyl)-2-oxopropanamido)ethyl ethanethioate], for which the “variation of rHDAC1 inhibition with initial incubation time” value on rHDAC1 [1] was “No variation of enzymatic inhibition”. In experiment [2] (50 μM), the “activity against WI38 cells at the highest concentration tested” value was “inactive”. In addition, the IC50 in experiment [2] is above 50 µM; in experiment [3], 21 µM; in [4] it was above 50 µM; in experiment [5] it was 9.5 µM; at rHDAC1 [6], 0.48 µM. Also, in experiment [4] (50 μM), the “activity against A549 cells at the highest concentration tested” value is “inactive”. For the same compound, at rHDAC1 [6], the “IC50^6/1 (ratio IC50 HDAC6/IC50 HDAC1)” value is listed as above 20.
`O=C(NCCSSCCNC(=O)/C(Cc1ccc(O)c(Br)c1)=N/O)/C(Cc1ccc(O)c(Br)c1)=N/O` [PSA (3), psammaplin A]: the concentration for half-maximal inhibition (IC50) in experiment [2] came out at 3.4 µM; in experiment [3], 1.3 µM; in experiment [4], 7.5 µM; in experiment [5], 2.8 µM; on rHDAC1 [6], 0.045 µM. At rHDAC1 [6], the “IC50^6/1 (ratio IC50 HDAC6/IC50 HDAC1)” value stood at 62.
As for `O=C(NCCS)/C(Cc1ccc(O)c(Br)c1)=N/O` [PSA-SH (4)], the IC50 in [2] stood at 3.4 µM; in [3], 2.4 µM; in [4], 2.5 µM; in experiment [5], 0.36 µM; at rHDAC1 [6], 0.001 µM. Besides, the “IC50^6/1 (ratio IC50 HDAC6/IC50 HDAC1)” value at rHDAC1 [6] was found to be 360.
Take `O=C(CCCCCCC(=O)Nc1ccccc1)NO` [SAHA (1), suberoylanilide hydroxamic acid]: the “IC50^6/1 (ratio IC50 HDAC6/IC50 HDAC1)” value on rHDAC1 [6] came to 7.
Regarding `CON=C(Cc1ccc(OC)c(Br)c1)C(=O)NCCSSCCNC(=O)C(Cc1ccc(OC)c(Br)c1)=NOC` [disulfide of 7], the IC50 is 13 µM in [7] (setting [12]), 46 µM in experiment [8] (setting [12]), above 50 µM in experiment [9] (setting [12]) and 0.22 µM on rHDAC1 [10] (setting [12]). At rHDAC1 [10] (setting [12]), the “IC50^6/1 (ratio IC50 HDAC6/IC50 HDAC1)” value is above 230.
For `COc1ccc(CC(=NO)C(=O)NCCSSCCNC(=O)C(Cc2ccc(OC)c(Br)c2)=NO)cc1Br` [disulfide of 8], the IC50 in [7] (setting [12]) was 0.63 µM; in experiment [11] (setting [12]), 2.2 µM; in experiment [8] (setting [12]), 4.1 µM; in [9] (setting [12]), 2 µM; at rHDAC1 [10] (setting [12]), 0.043 µM. Besides, the “IC50^6/1 (ratio IC50 HDAC6/IC50 HDAC1)” value on rHDAC1 [10] (setting [12]) is listed as 46.
Take `COc1ccc(CC(=O)C(=O)NCCSSCCNC(=O)C(=O)Cc2ccc(OC)c(Br)c2)cc1Br` [disulfide of 9]: the IC50 in experiment [7] (setting [12]) is 3.9 µM; in experiment [11] (setting [12]), 4.1 µM; in experiment [8] (setting [12]) it was 10 µM; in experiment [9] (setting [12]), 8 µM; at rHDAC1 [10] (setting [12]) it was 9 µM. Also, on rHDAC1 [10] (setting [12]), the “IC50^6/1 (ratio IC50 HDAC6/IC50 HDAC1)” value is listed as 0.9.
For `CON=C(Cc1ccc(OC)c(Br)c1)C(=O)NCCS` [thiol of 7], the IC50 was 12 µM in [7] (setting [13]); 10 µM in experiment [11] (setting [13]); 5.1 µM in experiment [8] (setting [13]); 2.7 µM in experiment [9] (setting [13]); 0.015 µM at rHDAC1 [10] (setting [13]). Moreover, on rHDAC1 [10] (setting [13]), the “IC50^6/1 (ratio IC50 HDAC6/IC50 HDAC1)” value is listed as 180.
On to `COc1ccc(CC(=NO)C(=O)NCCS)cc1Br` [thiol of 8], for which the IC50 in [7] (setting [13]) is 0.61 µM; in experiment [11] (setting [13]), 1.1 µM; in experiment [8] (setting [13]), 0.16 µM; in [9] (setting [13]), 3.2 µM; at rHDAC1 [10] (setting [13]), 0.002 µM. For the same compound, on rHDAC1 [10] (setting [13]), the “IC50^6/1 (ratio IC50 HDAC6/IC50 HDAC1)” value is listed as 1772.
On to `COc1ccc(CC(=O)C(=O)NCCS)cc1Br` [thiol of 9], for which the IC50 in [7] (setting [13]) is 3.4 µM; in [11] (setting [13]), 14 µM; in [8] (setting [13]), 11 µM; in experiment [9] (setting [13]), 0.25 µM; on rHDAC1 [10] (setting [13]), 1.1 µM. For the same compound, the “IC50^6/1 (ratio IC50 HDAC6/IC50 HDAC1)” value at rHDAC1 [10] (setting [13]) is on record as 0.22.

The values are drawn from PMC3566764, “Thioester derivatives of the natural product psammaplin A as potent histone deacetylase inhibitors” (Beilstein Journal of Organic Chemistry, 2013).
